Experimental data: US6403805B1 (Janssen Pharmaceutica N.V., priority 1995, dated 2002)
Structures can show the parent of a compound that is named as a salt.

Key:
[1] = target: T1, recombinant human MNL phosphodiesterase type IV B (Homo sapiens, UniProt Q07343); test: Inhibition of recombinant human mononuclear lymphocyte (MNL) phosphodiesterase type IV B produced in insect cells with a baculovirus vector; type: biochemical; conditions: recombinant human MNL PDE IV B; 0.8 μM 3H-cAMP, pH 8, 37° C.; calculated graphically
T1 construct: made in house; host or cells: insect cells infected with recombinant baculovirus
T1 sequence (Q07343 whole entry): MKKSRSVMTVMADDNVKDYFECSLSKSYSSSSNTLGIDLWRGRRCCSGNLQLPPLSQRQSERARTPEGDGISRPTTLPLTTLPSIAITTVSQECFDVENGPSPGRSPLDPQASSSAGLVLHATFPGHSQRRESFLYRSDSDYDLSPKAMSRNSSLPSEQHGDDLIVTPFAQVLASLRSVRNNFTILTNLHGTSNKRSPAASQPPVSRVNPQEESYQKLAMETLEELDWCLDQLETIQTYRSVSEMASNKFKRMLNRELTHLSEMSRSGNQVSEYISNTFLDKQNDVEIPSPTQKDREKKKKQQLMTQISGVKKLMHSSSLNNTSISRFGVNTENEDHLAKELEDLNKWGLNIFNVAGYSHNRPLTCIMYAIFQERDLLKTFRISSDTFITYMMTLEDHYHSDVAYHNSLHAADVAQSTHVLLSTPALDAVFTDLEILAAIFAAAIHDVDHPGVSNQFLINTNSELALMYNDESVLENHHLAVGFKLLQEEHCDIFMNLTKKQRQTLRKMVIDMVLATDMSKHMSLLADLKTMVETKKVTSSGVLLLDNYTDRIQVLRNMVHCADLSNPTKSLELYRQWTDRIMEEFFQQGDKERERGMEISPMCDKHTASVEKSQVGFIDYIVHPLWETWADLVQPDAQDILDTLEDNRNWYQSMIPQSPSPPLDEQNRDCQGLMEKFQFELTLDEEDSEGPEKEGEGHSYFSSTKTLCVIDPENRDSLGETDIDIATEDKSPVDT
Protocol: Inhibition of recombinant human mononuclear lymphoctye (MNL) phosphodiesterase type IV B produced in insect cells with a baculovirus vector
The alleviating and/or curing effect of the instant compounds on allergic and atopic diseases was assessed by an in vitro assay system to detect an inhibiting effect on the recombinant human MNL phosphodiesterase type IV B.
Seventy-two hours after infection with recombinant baculovirus, the insect cells were harvested and pelleted at 500 g for 5 minutes. The cells were lysed in 10 ml lysis-buffer consisting of 20 mM Tris, 10 mM EGTA, 2 mM Na2EDTA, 1% Triton-X-100, 1 mM Na3VO4, 10 mM NaF, 2 μg/ml of leupeptine, pepstatine and aprotinine, 0.3 μg/ml benzamidine and 100 μg/ml TPCK pH 7.5. After 5 minutes on ice, solubilized cells were centrifuged at 4000 rpm for 15 minutes at 4° C. The resulting supernatant was filtered through a 0.45 μm filter (Millipore) and brought to TBS buffer (50 mM Tris, 150 mM NaCl pH 7.4).
After washing the column with equilibration buffer, PDE IV was eluted in 1.5 ml fractions containing 37.5 μl 1M Tris pH 8. The fractions were dialyzed overnight against 20 mM Tris, 2 mM Na2EDTA and 400 mM NaCl pH 7.5 and tested for PDE IV activity. Identification was done on SDS PAGE and Western Blot (anti-FLAG-M2). Active fractions were pooled, brought to 10% glycerol and stored at −70° C.
The incubation mixture (pH 8) (200 μl) contained 20 mM Tris, 10 mM magnesium sulphate, 0.8 μM ^3H-cAMP (310 mCi/mmole) and the phosphodiesterase type IV, the amount depending on the enzymatic activity.
When the effect of different compounds on phosphodiesterase activity was tested, the medium without cAMP was incubated with the compound(s) or its carrier (DMSO-1% final concentration) for 5 min. The enzymatic reaction was started by addition of ^3H-cAMP and stopped 10 min later after transferring the microtiter-plate in a waterbath at 100° C. for 5 min. After cooling to room temperature, alkaline phosphatase (0.25 μg/ml) was added and the mixture was incubated at 37° C. for 20 min. 100 μl of the mixture was subsequently applied to a GF-B filter-microtiter-plate (Millipore) filled with 300 μl DEAE-Sephadex-A25 suspension. The plate was washed 3 times with 75 μl 20 mM Tris pH 7.5 and the filtrates were collected for counting in the Packard Top Count scintillation counter.
The inhibiting effect of the present compounds on recombinant human MNL phosphodiesterase PDE IV B was measured at different concentrations of the instant compounds. The IC50 values (expressed in M) were calculated graphically from the thus obtained inhibition values.

[2] = test system: dextran-induced oedema formation in mouse ear; test: Dextran-induced oedema formation in mouse ear; type: in vivo, Male Swiss mice; conditions: vs background blueing value; for % inhibition of the extravasation of the dye / inhibition in vivo at 5 mg/kg: oral dose of 5 mg/kg in PEG-200, one hour before i.v. dextran T500/pontamine sky-blue
Protocol: Dextran-induced oedema formation in mouse ear Systemic injection of dextran T500 in normal, non-sensitized mice elicits increased vascular permeability, leading to extravasation and oedema of the extremities. When dextran is injected together with a blue dye, blueing of the ears is the most prominent feature of oedematous response. Male Swiss mice weighting 24-26 g were orally pretreated with the test compound dissolved in PEG-200 at different concentrations or solvent. One hour later, the mice were given an intravenous injection with an isotonic saline solution containing 12 mg/ml dextran T500 and 2.6 mg/ml pontamine sky-blue dye, in a volume of 0.1 ml per 10 g body weight. One hour and forty-five minutes later, the animals are sacrificed by ether and their ears removed. Extraction and quantification of the extravasated dye is done as described by Van Wauwe and Goossens (Drug Dev. Res. 1986, 8, 213-218). The extravasation of the dye is characterized by the blueing value which is defined as the concentration of the extracted dye in both ears. The background blueing value was determined once as the mean blueing value obtained by injecting a group of mice with a saline solution containing only dextran T500 and the blue dye. Table 6 lists the percentage inhibition of the extravasation of the dye when compared with the background extravasation of the dye when the test compound was administered at a dose of 5 mg/kg. The test compounds indicated by an asterisk (*) were tested at a dose of 2.5 mg/kg

[3] = Mus musculus, 1 h, read-out: % inhibition of the extravasation of the dye

Row | Compound | IC50 [1] [µM] | inhibition in vivo at 5 mg/kg [2, 3] [%] | further results
1 | COc1ccc(C(C)Cn2cc[nH]c2=O)cc1OC1CCOC1 (centres unmarked) [Compound 29] | 0.24 |  | inhibition in vivo at 2.5 mg/kg ([2]; Mus musculus, 1 h, asterisk (*): oral dose of 2.5 mg/kg in PEG-200, one hour before i.v. dextran T500/pontamine sky-blue, read-out: % inhibition of the extravasation of the dye): 90.7%
2 | COc1ccc(C(C)Cn2cc[nH]c2=O)cc1OC1CCCC1 (centres unmarked) [Compound 7, (B)-1-[2-[3-(cyclopentyloxy)-4-methoxyphenyl]propyl]-1,3-dihydro-2H-imidazol-2-one] | 0.043 |  | % inhibition of the extravasation of the dye ([2]; 5 mg/kg): 67.0%
3 | CC(Cn1cc[nH]c1=O)c1ccc(OC(F)F)c(OC(F)F)c1 (centres unmarked) [Compound 38] | 0.02 | 76.6 | 
4 | COc1ccc(C(C)Cn2cc[nH]c2=O)cc1OCC1CCCO1 (centres unmarked) [Compound 33] | 2.3 | 65.8 | 
5 | COc1ccc(C(O)(Cn2cc[nH]c2=O)c2ccccc2)cc1OC1CCCC1 (racemic) [Compound 8, (±)-1-[2-[3-(cyclopentyloxy)-4-methoxyphenyl]-2-hydroxy-2-phenylethyl]-1,3-dihydro-2H-imidazol-2-one] | 1.9 | 12.4 | 
6 | CCOc1ccc(CCn2cc[nH]c2=O)cc1OCC [Compound 82] | 0.46 | 28.2 | 
7 | COc1ccc(C(C)Cn2cc[nH]c2=O)cc1OCC1CC1 (racemic) [Compound 10, (±)-1-[2-[3-(cyclopropylmethoxy)-4-methoxyphenyl]propyl]-1,3-dihydro-2H-imidazol-2-one] | < 0.01 | 91.9 | 
8 | COc1ccc(C(C)Cn2c(C)c[nH]c2=O)cc1OC (centres unmarked) [Compound 77, 1,3-dihydro-1-[2-(3,4-dimethoxyphenyl)propyl]-5-methyl-2H-imidazol-2-one] | 7.3 | 35.8 | 
9 | COc1ccc(C(CN2CCN(Cc3ccccc3)C2=O)NC(C)=O)cc1OC (racemic) [Compound 14, (±)-N-[1-(3,4-dimethoxyphenyl)-2-[2-oxo-3-(phenylmethyl)-1-imidazolidinyl]ethyl]acetamide] |  | 32.3 | melting point: 156.4 °C
10 | COc1ccc(C2(Cn3ccn(Cc4ccccc4)c3=O)CC2)cc1OC [Compound 21, 1-[[1-(3,4-dimethoxyphenyl)cyclopropyl]methyl]-1,3-dihydro-3-(phenylmethyl)-2H-imidazol-2-one] |  |  | melting point: 110.5 °C
11 | COc1ccc(C(C)(O)Cn2cc[nH]c2=O)cc1OC1CCCC1 (racemic) [Compound 12, (±)-1-[2-[3-(cyclopentyloxy)-4-methoxyphenyl]-2-hydroxypropyl]-1,3-dihydro-2H-imidazol-2-one] | 0.29 | 87.5 | melting point: 136.2 °C
12 | COc1ccc(CCn2cc[nH]c2=O)cc1OC1CCOC1 (centres unmarked) [Compound 35] | 0.18 | 90.1 | 
13 | 1,3-dihydro-1-[2-(3,4-dimethoxyphenyl)ethyl]-2-methyl-3H-imidazol-2-one [Compound 86] | 1.8 |  | % inhibition of the extravasation of the dye [2]: 39.0%
14 | COc1ccc(C(Cn2cc[nH]c2=O)OC)cc1OC (centres unmarked) [Compound 83, 1,3-dihydro-1-[2-(3,4-dimethoxyphenyl)-2-methoxy-ethyl]-2H-imidazol-2-one] | 2.7 | 18.6 | 
15 | COc1ccc(CCN2CCNC2=O)cc1OC [Compound 78, 1-[2-(3,4-dimethoxyphenyl)ethyl]-1,3,4,5-tetrahydro-2H-imidazol-2-one] | 9 | 31.3 | 
16 | COc1ccc(C(C)Cn2cc[nH]c2=O)cc1OC (centres unmarked) [Compound 76, 1,3-dihydro-1-[2-(3,4-dimethoxyphenyl)propyl]-2H-imidazol-2-one] | 0.15 | 69 | 
17 | CC(Cn1cc[nH]c1=O)c1ccc(OC(F)F)c(OCc2ccccc2)c1 (centres unmarked) [Compound 34] | 0.19 | 31.1 | 
18 | CC(Cn1ccnc1O)c1ccc(OC(F)F)c(OC2CCCC2)c1 (centres unmarked) [Compound 37] | 0.0007 | 75.7 | 
19 | COc1ccc(C(C)Cn2cc[nH]c2=O)cc1OCC1CC1 (centres unmarked) [Compound 22, (A)-1-[2-[3-(cyclopropylmethoxy)-4-methoxyphenyl]propyl]-1,3-dihydro-2H-imidazol-2-one] | 0.045 | 83.5 | 
20 | COc1ccc(C(C)Cn2cc[nH]c2=O)cc1OC1CCCC1 (racemic) [Compound 1, (±)-1-[2-[3-(cyclopentyloxy)-4-methoxyphenyl]propyl]-1,3-dihydro-2H-imidazol-2-one] | 0.0048 | 83.1 | 
21 | COc1ccc(CCn2cc[nH]c2=O)cc1OC [Compound 79, 1,3-dihydro-1-[2-(3,4-dimethoxyphenyl)ethyl]-2H-imidazol-2-one] | 0.77 | 61.6 | 
22 | COc1ccc(C(C)CN2CCNC2=O)cc1OC (centres unmarked) [Compound 80, 1-[2-(3,4-dimethoxyphenyl)propyl]-1,3,4,5-tetrahydro-2H-imidazol-2-one] | 3.2 | 53.4 | 
23 | CCOC(Cn1cc[nH]c1=O)c1ccc(OC)c(OC)c1 (racemic) [Compound 15, (±)-1-[2-(3,4-dimethoxyphenyl)-2-ethoxyethyl]-1,3-dihydro-2H-imidazol-2-one] |  |  | melting point: 133.6 °C
24 | COc1ccc(C(C)Cn2cc[nH]c2=O)cc1OC1CCCC1 (centres unmarked) [Compound 6, (A)-1-[2-[3-(cyclopentyloxy)-4-methoxy-phenyl]propyl]-1,3-dihydro-2H-imidazol-2-one] | 0.0041 |  | % inhibition of the extravasation of the dye ([2]; 5 mg/kg): 85.1%
25 | COc1ccc(C(C)Cn2cc[nH]c2=O)cc1OCC1CCCC1 (centres unmarked) [Compound 32] | 0.14 | 76.2 | 
26 | COc1ccc(C(N)CN2CCN(Cc3ccccc3)C2=O)cc1OC (racemic) (as salt: hydrochloric acid salt) [Compound 11, (±)-1-[2-amino-2-(3,4-dimethoxyphenyl)ethyl]-3-(phenylmethyl)-2-imidazolidinone] |  |  | melting point: 221.7 °C
